Measured values published in patent US20110166128A1, “Diaryldiazepine Prodrugs for the Treatment of Neurological and Psychological Disorders” (priority 2010, published 2011).

Experiment: physchem
Text: At pH 4 and 5, 0.1 M citrate buffers were used, while for pH 6, 7 and 8 a set of 0.1M phosphate buffers were used. Each buffer also contained 0.2 M NaCl. No cosolvents or other potentially solubilizing components were included. Buffer preparations were subdivided in order to individually test the solubility of only one material in a given buffer sample.

variation in solubility across the pH range studied: less than 2 fold
solubility (pH 4, aqueous buffer, thermodynamic from solid): 0.1 to 0.2 ng/mL
SMILES: CCCCCCCCCCCCC(C)(C)C(=O)OC[N+]1(C)CCN(C2=Nc3ccccc3Nc3sc(C)cc32)CC1.[I-] [Compound 18, 1-(((2,2-dimethyltetradecanoyl)oxy)methyl)-1-methyl-4-(2-methyl-10H-benzo[b]thieno[2,3-e][1,4]diazepin-4-yl)piperazin-1-ium iodide]
